The results in this text go back to US20250092033A1, “HETEROAROMATIC NITROGEN-OXIDE COMPOUND, PREPARATION METHOD THEREFOR, AND USE THEREOF” (BEIJING AVISTONE BIOTECHNOLOGY CO., LTD., priority 2021, published 2025).

Common to all, as to type: biochemical
Conditions in all cases: 10 concentrations, 3-fold dilution

One assay concerns the target T1, MET D1228N (Homo sapiens, UniProt P08581, D1228N).
T1 construct: purchased Signalchem M52-12IG
The assay is described as follows: Kinase inhibition experiment (HTRF KinEASE-TK kit), mutant MET D1228N. The method, then:
(§1) The activity of the compounds was determined by detecting the residual amount of ATP after reacting with wild-type or mutant MET protein kinase by using an HTRF KinEASE-TK kit. […]
(§2) The compounds were determined on the selected kinase, the solvent control was set and a total of 10 concentrations were detected, diluted 3-fold, 2 replicates per concentration.
(§3) 1 volume of 5× kinase reaction buffer and 4 volumes of water; 5 mM MgCl2; 1 mM DTT; 1 mM MnCl2; or 2500 nm SEB.
(§4) 1) 10 nl or 4 μlof the diluted compound was transferred to each well of the reaction plate (784075 or 264706, Greiner or Thermo) with a pipette, the reaction plate was sealed with a sealing plate, and centrifuged at 1000 for 1 minute.
(§5) 2) 2× MET was prepared from 1× enzyme reaction buffer, 5 μl or 2 μl kinase was added to each well of the reaction plate, the reaction plate was sealed with a sealing plate, centrifuged at 1000 g for 30 seconds and incubated at room temperature for 10 min.
(§6) 3) a mixed solution of 2× TK-substrate-biotin and ATP were prepared from 1× enzyme reaction buffer solution, 5 μl or 2 μl TK-substrate-biotin/ATP of the mixed solution was added into a reaction plate, the reaction plate was sealed with a sealing plate, centrifuged at 1000 g for 30 seconds and reacted for 50 minutes or 10 minutes at room temperature.
(§7) 4) a mixed solution of 4× or 2× Sa-XL 665 and TK-antibody-Cryptate were prepared from HTRF detection buffer, 5 or 10 μl of the mixed solution of Sa-XL 665 and TK-antibody-Cryptate was added into each well, centrifuged at 1000 g for 30 seconds, and reacted at room temperature for 1 h.
(§8) 5) the fluorescence signals at 615 nm (cryptate) and 665 nm (XL665) were read with Envision 2104 or TECAN.
(§9) The data was analyzed using GraphPad Prism 6.0 or 7 software, and the dose-response curve was fitted with nonlinear S-curve regression, and the IC50 value was calculated therefrom.
(§10) Enzyme Inhibition Percent (%)=100-(Signalmpd-SignalAve_PC)/(SignalAve_VC-SignalAve_PC)×100
On the technique in general: TR-FRET usually uses a lanthanide donor and a delayed reading to cut background.

The target of assay [1] is T2, wild type (WT) MET kinase (Homo sapiens, UniProt P08581).
T2 construct: purchased Carna 08-151
T2 sequence (P08581 25-1390): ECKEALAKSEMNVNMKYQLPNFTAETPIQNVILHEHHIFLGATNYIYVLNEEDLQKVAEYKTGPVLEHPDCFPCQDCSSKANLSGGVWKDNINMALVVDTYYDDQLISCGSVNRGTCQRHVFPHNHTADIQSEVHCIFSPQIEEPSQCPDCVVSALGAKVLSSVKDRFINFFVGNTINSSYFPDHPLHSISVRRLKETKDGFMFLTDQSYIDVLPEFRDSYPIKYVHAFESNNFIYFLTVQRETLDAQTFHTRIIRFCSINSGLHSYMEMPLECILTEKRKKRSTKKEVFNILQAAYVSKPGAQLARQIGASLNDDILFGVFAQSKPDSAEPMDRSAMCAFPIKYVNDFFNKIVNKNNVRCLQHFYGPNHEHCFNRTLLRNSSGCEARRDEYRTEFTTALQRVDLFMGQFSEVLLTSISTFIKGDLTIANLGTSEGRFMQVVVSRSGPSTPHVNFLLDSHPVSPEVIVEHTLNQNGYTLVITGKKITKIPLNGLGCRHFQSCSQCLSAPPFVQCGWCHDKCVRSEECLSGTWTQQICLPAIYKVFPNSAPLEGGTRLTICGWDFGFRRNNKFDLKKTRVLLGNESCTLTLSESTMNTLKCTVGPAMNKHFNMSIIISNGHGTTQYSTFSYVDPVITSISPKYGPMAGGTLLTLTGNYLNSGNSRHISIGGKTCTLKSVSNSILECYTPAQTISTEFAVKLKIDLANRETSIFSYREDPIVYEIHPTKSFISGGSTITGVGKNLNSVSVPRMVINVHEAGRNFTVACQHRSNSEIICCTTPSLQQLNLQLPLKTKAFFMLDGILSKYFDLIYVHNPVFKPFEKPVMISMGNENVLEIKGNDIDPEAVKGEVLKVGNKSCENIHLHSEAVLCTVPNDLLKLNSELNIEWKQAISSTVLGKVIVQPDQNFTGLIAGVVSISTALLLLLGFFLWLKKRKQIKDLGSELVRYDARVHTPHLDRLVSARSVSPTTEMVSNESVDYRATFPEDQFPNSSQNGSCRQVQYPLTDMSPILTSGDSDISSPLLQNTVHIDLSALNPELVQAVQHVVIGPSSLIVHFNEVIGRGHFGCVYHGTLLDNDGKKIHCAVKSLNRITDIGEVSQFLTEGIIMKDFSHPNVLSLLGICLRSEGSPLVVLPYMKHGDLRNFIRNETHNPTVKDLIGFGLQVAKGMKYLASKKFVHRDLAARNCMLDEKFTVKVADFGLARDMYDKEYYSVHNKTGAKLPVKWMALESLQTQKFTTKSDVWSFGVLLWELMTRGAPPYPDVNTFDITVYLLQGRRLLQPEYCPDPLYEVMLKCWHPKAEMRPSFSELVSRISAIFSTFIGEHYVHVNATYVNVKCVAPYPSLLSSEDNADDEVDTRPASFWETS
The assay is described as follows: Kinase inhibition experiment (HTRF KinEASE-TK kit), wild-type MET. The method, then:
as §1, §2, §3, §4, §5, §6, §7, §8, §9, §10

The next assay concerns the target T3, MET F1200I (Homo sapiens, UniProt P08581, F1200I).
T3 construct: purchased Signalchem M52-12GG/Y767-2
The assay is described as follows: Kinase inhibition experiment (HTRF KinEASE-TK kit), mutant MET F1200I. The method, then: as §1, §2, §3, §4, §5, §6, §7, §8, §9, §10

T1 sequence (P08581 25-1390 D1228N): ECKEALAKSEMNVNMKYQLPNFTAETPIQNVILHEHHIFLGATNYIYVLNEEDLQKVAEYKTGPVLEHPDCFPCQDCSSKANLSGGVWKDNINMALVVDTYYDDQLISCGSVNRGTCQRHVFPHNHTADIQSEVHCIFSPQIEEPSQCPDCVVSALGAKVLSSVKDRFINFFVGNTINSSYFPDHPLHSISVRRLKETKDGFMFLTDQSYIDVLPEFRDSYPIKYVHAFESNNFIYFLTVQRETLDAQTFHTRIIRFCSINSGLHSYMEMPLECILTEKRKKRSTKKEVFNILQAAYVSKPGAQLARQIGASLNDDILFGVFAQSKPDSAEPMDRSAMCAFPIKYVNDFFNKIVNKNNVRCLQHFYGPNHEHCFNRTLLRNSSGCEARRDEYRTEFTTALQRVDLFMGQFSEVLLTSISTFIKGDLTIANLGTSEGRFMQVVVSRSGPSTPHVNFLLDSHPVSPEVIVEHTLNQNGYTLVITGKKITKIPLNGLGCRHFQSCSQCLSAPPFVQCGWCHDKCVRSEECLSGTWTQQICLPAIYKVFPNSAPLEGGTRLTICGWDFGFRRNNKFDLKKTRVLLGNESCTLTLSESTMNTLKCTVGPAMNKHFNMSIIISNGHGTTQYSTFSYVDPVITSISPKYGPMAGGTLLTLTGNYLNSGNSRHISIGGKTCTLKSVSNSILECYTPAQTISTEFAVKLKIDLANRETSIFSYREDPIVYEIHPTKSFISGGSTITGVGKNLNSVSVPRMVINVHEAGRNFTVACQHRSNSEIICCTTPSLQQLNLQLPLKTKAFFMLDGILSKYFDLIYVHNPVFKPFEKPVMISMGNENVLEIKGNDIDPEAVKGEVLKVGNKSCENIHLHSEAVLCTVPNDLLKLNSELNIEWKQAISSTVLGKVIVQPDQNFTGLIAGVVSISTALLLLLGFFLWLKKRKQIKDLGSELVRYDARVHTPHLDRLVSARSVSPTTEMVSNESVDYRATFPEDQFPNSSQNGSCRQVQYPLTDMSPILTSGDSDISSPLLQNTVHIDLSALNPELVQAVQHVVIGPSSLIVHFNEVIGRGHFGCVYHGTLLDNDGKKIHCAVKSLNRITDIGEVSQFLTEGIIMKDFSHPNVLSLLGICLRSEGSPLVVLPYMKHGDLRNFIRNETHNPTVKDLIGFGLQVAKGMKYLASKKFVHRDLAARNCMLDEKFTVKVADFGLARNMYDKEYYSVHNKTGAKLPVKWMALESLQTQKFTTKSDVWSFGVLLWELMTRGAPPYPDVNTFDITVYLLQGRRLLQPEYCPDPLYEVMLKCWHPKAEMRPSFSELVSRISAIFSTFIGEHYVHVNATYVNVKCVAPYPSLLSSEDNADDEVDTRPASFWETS
T3 sequence (P08581 25-1390 F1200I): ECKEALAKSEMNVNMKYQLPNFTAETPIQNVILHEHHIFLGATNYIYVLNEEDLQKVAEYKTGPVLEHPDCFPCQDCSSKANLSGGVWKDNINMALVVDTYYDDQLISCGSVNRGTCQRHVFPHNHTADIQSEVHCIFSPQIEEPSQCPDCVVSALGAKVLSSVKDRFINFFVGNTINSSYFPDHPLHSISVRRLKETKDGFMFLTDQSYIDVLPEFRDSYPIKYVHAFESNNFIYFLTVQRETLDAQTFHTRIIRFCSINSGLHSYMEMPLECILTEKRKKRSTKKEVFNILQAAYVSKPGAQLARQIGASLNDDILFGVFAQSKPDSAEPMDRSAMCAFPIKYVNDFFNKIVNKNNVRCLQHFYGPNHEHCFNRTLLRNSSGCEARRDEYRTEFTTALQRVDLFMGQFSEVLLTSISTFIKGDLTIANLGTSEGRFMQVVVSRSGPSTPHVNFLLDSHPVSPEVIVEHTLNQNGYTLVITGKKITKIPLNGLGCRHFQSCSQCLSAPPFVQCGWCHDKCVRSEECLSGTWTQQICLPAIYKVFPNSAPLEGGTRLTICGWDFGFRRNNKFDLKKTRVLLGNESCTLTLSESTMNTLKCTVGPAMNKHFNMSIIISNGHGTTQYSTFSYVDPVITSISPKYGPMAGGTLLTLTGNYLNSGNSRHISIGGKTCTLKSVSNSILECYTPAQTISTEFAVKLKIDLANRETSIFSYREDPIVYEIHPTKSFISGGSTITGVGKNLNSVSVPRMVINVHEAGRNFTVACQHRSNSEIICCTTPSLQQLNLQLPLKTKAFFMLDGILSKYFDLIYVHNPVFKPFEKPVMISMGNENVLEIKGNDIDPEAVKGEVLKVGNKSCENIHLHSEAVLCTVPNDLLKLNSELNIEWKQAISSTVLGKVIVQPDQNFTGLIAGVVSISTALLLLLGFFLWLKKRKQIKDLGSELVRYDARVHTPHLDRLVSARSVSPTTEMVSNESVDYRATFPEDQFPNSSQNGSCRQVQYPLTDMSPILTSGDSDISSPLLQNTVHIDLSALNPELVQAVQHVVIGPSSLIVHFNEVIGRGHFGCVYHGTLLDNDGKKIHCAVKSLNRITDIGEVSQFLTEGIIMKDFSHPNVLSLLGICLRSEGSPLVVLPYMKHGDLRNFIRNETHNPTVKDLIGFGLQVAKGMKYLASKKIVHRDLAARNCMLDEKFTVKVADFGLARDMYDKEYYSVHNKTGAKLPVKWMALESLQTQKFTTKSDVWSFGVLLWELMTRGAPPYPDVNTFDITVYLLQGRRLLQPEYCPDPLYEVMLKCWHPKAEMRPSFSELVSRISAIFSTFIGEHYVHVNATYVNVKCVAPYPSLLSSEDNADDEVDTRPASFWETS

In general, IC50 refers to the concentration at which inhibition is half-maximal. Read a low IC50 as higher potency. For `O=C(Nc1ccc(Oc2ccnc3[nH]nc(NCCO)c23)c(F)c1)c1cccc(-c2ccc(F)cc2)[n+]1[O-]` [Final product 1], the IC50 amounted to 35.4 nM at MET D1228N, 2.3 nM in assay [1] and 5.8 nM on MET F1200I.

For the compound `C[C@@H](CO)Nc1n[nH]c2nccc(Oc3ccc(NC(=O)c4cccc(-c5ccc(F)cc5)[n+]4[O-])cc3F)c12` [Final product 3], the results for the IC50 (against MET D1228N; in assay [1]; at MET F1200I) were 13.1 nM, 4.3 nM and 18.3 nM, respectively.

`CC[C@@H](CO)Nc1n[nH]c2nccc(Oc3ccc(NC(=O)c4cccc(-c5ccc(F)cc5)[n+]4[O-])cc3F)c12` [Final product 6]: the IC50 against MET D1228N came to 30 nM; in assay [1] it was 8.5 nM; against MET F1200I, 21.4 nM.

`CC(O)CNc1n[nH]c2nccc(Oc3ccc(NC(=O)c4cccc(-c5ccc(F)cc5)[n+]4[O-])cc3F)c12` (stereo not drawn) [Final product 8]: the IC50 on MET D1228N came to 28.4 nM; in assay [1] it was 4.6 nM; at MET F1200I, 2.3 nM.

For `CCC(O)CNc1n[nH]c2nccc(Oc3ccc(NC(=O)c4cccc(-c5ccc(F)cc5)[n+]4[O-])cc3F)c12` (stereo not drawn) [Final product 9], the IC50 was found to be 25.6 nM on MET D1228N, 3.8 nM in assay [1] and 20.8 nM on MET F1200I.

Take `O=C(Nc1ccc(Oc2ccnc3[nH]nc(NCC(O)C(F)(F)F)c23)c(F)c1)c1cccc(-c2ccc(F)cc2)[n+]1[O-]` (stereo not drawn) [Final product 11]: the IC50 stood at 35.7 nM against MET D1228N, 6.3 nM in assay [1] and 16.8 nM against MET F1200I.

On to `C[C@@H](Nc1n[nH]c2nccc(Oc3ccc(NC(=O)c4cccc(-c5ccc(F)cc5)[n+]4[O-])cc3F)c12)C(C)(C)O` [Final product 16], for which the IC50 amounted to 28.2 nM at MET D1228N, 7.5 nM in assay [1] and 25.8 nM against MET F1200I.

For the compound `O=C(Nc1ccc(Oc2ccnc3[nH]nc(NCC4(CO)CC(O)C4)c23)c(F)c1)c1cccc(-c2ccc(F)cc2)[n+]1[O-]` (stereo not drawn) [Final product 20], the half-maximal inhibitory concentration (IC50) was 29.9 nM against MET D1228N, 6.9 nM in assay [1] and 20.1 nM at MET F1200I.

`O=C(Nc1ccc(Oc2ccnc3[nH]nc(NC4(CO)CC4)c23)c(F)c1)c1cccc(-c2ccc(F)cc2)[n+]1[O-]` [Final product 22]: the IC50 was 25.5 nM against MET D1228N, 5.9 nM in assay [1] and 15.5 nM at MET F1200I.

For `O=C(Nc1ccc(Oc2ccnc3[nH]nc(N[C@H]4C[C@H](O)C4)c23)c(F)c1)c1cccc(-c2ccc(F)cc2)[n+]1[O-]` [Final product 23], the results for the half-inhibitory concentration (IC50) (against MET D1228N; in assay [1]; against MET F1200I) were 21 nM, 3.3 nM and 12.5 nM, respectively.

As for `O=C(Nc1ccc(Oc2ccnc3[nH]nc(N4CCC(O)CC4)c23)c(F)c1)c1cccc(-c2ccc(F)cc2)[n+]1[O-]` [Final product 26, 2-((3-fluoro-4-((3-(4-hydroxypiperidin-1-yl)-1H-pyrazolo[3,4-b]pyridin-4-yl)oxy)phenyl)carbamoyl)-6-(4-fluorophenyl)pyridine 1-oxide], the IC50 on MET D1228N stood at 18.1 nM; in assay [1], 3.8 nM; on MET F1200I, 9.5 nM.

In the case of `CC1(O)CCN(c2n[nH]c3nccc(Oc4ccc(NC(=O)c5cccc(-c6ccc(F)cc6)[n+]5[O-])cc4F)c23)CC1` [Final product 27], the IC50 at MET D1228N turned out to be 13.4 nM; in assay [1], 4.5 nM; against MET F1200I, 8.6 nM.

For `CC1(CO)CCN(c2n[nH]c3nccc(Oc4ccc(NC(=O)c5cccc(-c6ccc(F)cc6)[n+]5[O-])cc4F)c23)CC1` [Final product 29], the IC50 is 15.8 nM against MET D1228N, 5.2 nM in assay [1] and 20.4 nM against MET F1200I.

Consider `O=C(Nc1ccc(Oc2ccnc3[nH]nc(N4CCC[C@H](CO)C4)c23)c(F)c1)c1cccc(-c2ccc(F)cc2)[n+]1[O-]` [Final product 33], for which the IC50 was found to be 30.5 nM at MET D1228N, 9.7 nM in assay [1] and 21.1 nM against MET F1200I.

`O=C(Nc1ccc(Oc2ccnc3[nH]nc(N4CCO[C@@H](CO)C4)c23)c(F)c1)c1cccc(-c2ccc(F)cc2)[n+]1[O-]` [Final product 34]: the IC50 against MET D1228N turned out to be 18.8 nM; in assay [1], 2.7 nM; on MET F1200I, 12.3 nM.

As for `O=C(Nc1ccc(Oc2ccnc3[nH]nc(N4CCO[C@H](CO)C4)c23)c(F)c1)c1cccc(-c2ccc(F)cc2)[n+]1[O-]` [Final product 35], the IC50 on MET D1228N was 14.7 nM; in assay [1], 2 nM; against MET F1200I, 17.9 nM.

On to `C[C@H](CO)Nc1n[nH]c2nccc(Oc3ccc(NC(=O)c4cccc(-c5ccc(Cl)cc5)[n+]4[O-])cc3F)c12` [Final product 42], for which the IC50 was found to be 36.2 nM against MET D1228N, 1.4 nM in assay [1] and 14.2 nM at MET F1200I.

As to `C[C@H](CO)Nc1n[nH]c2nccc(Oc3ccc(NC(=O)c4ccc(F)c(-c5ccc(Cl)cc5)[n+]4[O-])cc3F)c12` [Final product 56], the IC50 against MET D1228N turned out to be 17.7 nM; in assay [1], 5 nM; against MET F1200I, 14.4 nM.

As for `CC[C@@H](CO)Nc1n[nH]c2nccc(Oc3ccc(NC(=O)c4ccc(Cl)c(-c5ccc(F)cc5)[n+]4[O-])cc3F)c12` [Final product 59], the values for the IC50 (at MET D1228N; in assay [1]; against MET F1200I) were 20.3 nM, 12.7 nM and 7.9 nM, respectively.

Consider `O=C(Nc1ccc(Oc2ccnc3[nH]nc(N[C@H]4CC[C@H](O)CC4)c23)c(F)c1)c1ccc(Cl)c(-c2ccc(F)cc2)[n+]1[O-]` [Final product 64], for which the IC50 at MET D1228N is 45.6 nM; on MET F1200I it was 22.5 nM.

`C[C@H](CO)Nc1n[nH]c2nccc(Oc3ccc(NC(=O)c4ccc(Cl)c(-c5ccc(Cl)cc5)[n+]4[O-])cc3F)c12` [Final product 65]: the IC50 was found to be 37.4 nM at MET D1228N, 10.8 nM in assay [1] and 42.4 nM at MET F1200I.

For `C[C@H](CO)Nc1n[nH]c2nccc(Oc3ccc(NC(=O)c4ccc(Cl)c(-c5ccc(F)cc5Cl)[n+]4[O-])cc3F)c12` [Final product 66], the IC50 on MET D1228N was found to be 11 nM; in assay [1] it was 2.7 nM; against MET F1200I it was 35.5 nM.

Turning to `C[C@H](CO)Nc1n[nH]c2nccc(Oc3ccc(NC(=O)c4ccc(C5CC5)c(-c5ccc(F)cc5)[n+]4[O-])cc3F)c12` [Final product 81], the IC50 is 32.8 nM on MET D1228N, 10.4 nM in assay [1] and 26 nM at MET F1200I.

On to `C[C@H](CO)Nc1n[nH]c2nccc(Oc3ccc(NC(=O)c4ccc(C(F)(F)F)c(-c5ccc(F)cc5)[n+]4[O-])cc3F)c12` [Final product 82], for which the IC50 against MET D1228N was 48.1 nM; in assay [1], 17.4 nM; on MET F1200I it was 29.6 nM.

As for `C[C@H](CO)Nc1n[nH]c2nccc(Oc3ccc(NC(=O)c4ccc(C#N)c(-c5ccc(F)cc5)[n+]4[O-])cc3F)c12` [Final product 83], the IC50 on MET D1228N stood at 30.4 nM; in assay [1] it was 3.2 nM; against MET F1200I, 6.2 nM.

For `CSc1ccc(C(=O)Nc2ccc(Oc3ccnc4[nH]nc(N[C@H](C)CO)c34)c(F)c2)[n+]([O-])c1-c1ccc(F)cc1` [Final product 86], the IC50 amounted to 10.2 nM against MET D1228N, 6.4 nM in assay [1] and 29.7 nM at MET F1200I.

Consider `C[C@H](CO)Nc1n[nH]c2nccc(Oc3ccc(NC(=O)c4ccc(S(C)(=O)=O)c(-c5ccc(F)cc5)[n+]4[O-])cc3F)c12` [Final product 87], for which the values for the IC50 (on MET D1228N; in assay [1]; on MET F1200I) were 20.6 nM, 5.3 nM and 23 nM, respectively.

For the compound `C[C@H](CO)Nc1n[nH]c2nccc(Oc3ccc(NC(=O)c4ccc(N(C)C)c(-c5ccc(F)cc5)[n+]4[O-])cc3F)c12` [Final product 89], the IC50 against MET D1228N was 16.4 nM; in assay [1], 5.3 nM; at MET F1200I it was 17.6 nM.

Regarding `C[C@H](CO)Nc1n[nH]c2nccc(Oc3ccc(NC(=O)c4cc(C5CC5)cc(-c5ccc(F)cc5)[n+]4[O-])cc3F)c12` [Final product 91], the IC50 against MET D1228N is 41.2 nM; in assay [1] it was 12.1 nM.

Consider `C[C@H](CO)Nc1n[nH]c2nccc(Oc3ccc(NC(=O)c4ccnc(-c5ccc(F)cc5)[n+]4[O-])cc3F)c12` [Final product 96], for which the IC50 on MET D1228N was found to be 14.1 nM; in assay [1] it was 2.2 nM; against MET F1200I, 4.5 nM.

Consider `COc1ccc2ncnc(Nc3ccc(NC(=O)c4cccc(-c5ccc(F)cc5)[n+]4[O-])cc3F)c2c1O[C@H](C)CO` [Final product 181, (R)-2-((3-fluoro-4-((5-((1-hydroxypropan-2-yl)oxy)-6-methoxyquinazolin-4-yl)amino)phenyl)carbamoyl)-6-(4-fluorophenyl)pyridine 1-oxide], for which the half-inhibitory concentration (IC50) against MET D1228N was determined as 29.2 nM; in assay [1], 11.7 nM.
